Data as given in PubChem BioAssay (NCI).
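A five-concentration, 48-hour dose response in 96-well plates underlies each endpoint, interpolated linearly between surrounding concentrations. Abbreviation: GI50, concentration required for 50% inhibition of growth. TGI denotes the concentration required for complete inhibition of growth.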

Experiments:
Assay in all cases: NCI tumour cell line growth inhibition, 48 h
786-0 renal = tested on: 786-0 renal
A498 renal = tested on: A498 renal
A549 NSCLC = tested on: A549 NSCLC
ACHN renal = tested on: ACHN renal
BT-549 breast = tested on: BT-549 breast
CAKI-1 renal = tested on: CAKI-1 renal
CCRF-CEM leukemia = tested on: CCRF-CEM leukemia
COLO 205 colon = tested on: COLO 205 colon
DU-145 prostate = tested on: DU-145 prostate
EKVX NSCLC = tested on: EKVX NSCLC
HCC-2998 colon = tested on: HCC-2998 colon
HCT-116 colon = tested on: HCT-116 colon
HCT-15 colon = tested on: HCT-15 colon
HL-60(TB) leukemia = tested on: HL-60(TB) leukemia
HOP-62 NSCLC = tested on: HOP-62 NSCLC
HOP-92 NSCLC = tested on: HOP-92 NSCLC
HT29 colon = tested on: HT29 colon
IGROV1 ovarian = tested on: IGROV1 ovarian
K-562 leukemia = tested on: K-562 leukemia
KM12 colon = tested on: KM12 colon
LOX IMVI melanoma = tested on: LOX IMVI melanoma
M14 melanoma = tested on: M14 melanoma
MALME-3M melanoma = tested on: MALME-3M melanoma
MCF7 breast = tested on: MCF7 breast
MDA-MB-231 breast = tested on: MDA-MB-231 breast
MDA-MB-435 = tested on: MDA-MB-435
MOLT-4 leukemia = tested on: MOLT-4 leukemia
NCI-H226 lung = tested on: NCI-H226 lung
NCI-H23 lung = tested on: NCI-H23 lung
NCI-H460 lung = tested on: NCI-H460 lung
NCI-H522 lung = tested on: NCI-H522 lung
NCI/ADR-RES ovarian = tested on: NCI/ADR-RES ovarian
OVCAR-3 ovarian = tested on: OVCAR-3 ovarian
OVCAR-4 ovarian = tested on: OVCAR-4 ovarian
OVCAR-5 ovarian = tested on: OVCAR-5 ovarian
PC-3 prostate = tested on: PC-3 prostate
RPMI-8226 leukemia = tested on: RPMI-8226 leukemia
RXF 393 renal = tested on: RXF 393 renal
SF-268 CNS = tested on: SF-268 CNS
SF-295 CNS = tested on: SF-295 CNS
SF-539 CNS = tested on: SF-539 CNS
SK-MEL-2 melanoma = tested on: SK-MEL-2 melanoma
SK-MEL-28 melanoma = tested on: SK-MEL-28 melanoma
SK-MEL-5 melanoma = tested on: SK-MEL-5 melanoma
SK-OV-3 ovarian = tested on: SK-OV-3 ovarian
SN12C renal = tested on: SN12C renal
SNB-19 CNS = tested on: SNB-19 CNS
SNB-75 CNS = tested on: SNB-75 CNS
SR leukemia = tested on: SR leukemia
SW-620 colon = tested on: SW-620 colon
T-47D breast = tested on: T-47D breast
TK-10 renal = tested on: TK-10 renal
U251 CNS = tested on: U251 CNS
UACC-257 melanoma = tested on: UACC-257 melanoma
UACC-62 melanoma = tested on: UACC-62 melanoma
UO-31 renal = tested on: UO-31 renal

COc1cc(-c2nc3ccccc3[nH]2)ccc1OCC(=O)N=Nc1c(O)[nH]c2ccc(Cl)cc12
GI50 (786-0 renal): 1.84 µM | TGI (786-0 renal): 3.53 µM | GI50 (A498 renal): 2.18 µM | TGI (A498 renal): 5.42 µM | GI50 (A549 NSCLC): 3.72 µM | TGI (A549 NSCLC): > 100 µM | GI50 (ACHN renal): 4.75 µM | TGI (ACHN renal): > 100 µM | GI50 (BT-549 breast): 1.98 µM | TGI (BT-549 breast): 4.03 µM | GI50 (CAKI-1 renal): 1.81 µM | TGI (CAKI-1 renal): 3.55 µM | GI50 (CCRF-CEM leukemia): 0.5 µM | TGI (CCRF-CEM leukemia): 3.56 µM | GI50 (COLO 205 colon): 1.89 µM | TGI (COLO 205 colon): 3.79 µM | GI50 (DU-145 prostate): 1.68 µM | TGI (DU-145 prostate): 3.43 µM | GI50 (EKVX NSCLC): 4.94 µM | TGI (EKVX NSCLC): > 100 µM | GI50 (HCC-2998 colon): 1.32 µM | TGI (HCC-2998 colon): 2.8 µM | GI50 (HCT-116 colon): 0.4 µM | TGI (HCT-116 colon): 1.53 µM | GI50 (HCT-15 colon): 4.9 µM | TGI (HCT-15 colon): > 100 µM | GI50 (HL-60(TB) leukemia): 1.93 µM | TGI (HL-60(TB) leukemia): 4.42 µM | GI50 (HOP-62 NSCLC): 1.79 µM | TGI (HOP-62 NSCLC): 3.44 µM | GI50 (HOP-92 NSCLC): 1.5 µM | TGI (HOP-92 NSCLC): 3.07 µM | GI50 (HT29 colon): 1.62 µM | TGI (HT29 colon): 3.48 µM | GI50 (IGROV1 ovarian): 1.52 µM | TGI (IGROV1 ovarian): 3.05 µM | GI50 (K-562 leukemia): 0.454 µM | TGI (K-562 leukemia): 3.1 µM | GI50 (KM12 colon): 1.41 µM | TGI (KM12 colon): 3.24 µM | GI50 (LOX IMVI melanoma): 0.337 µM | TGI (LOX IMVI melanoma): 1.24 µM | GI50 (M14 melanoma): 1.67 µM | TGI (M14 melanoma): 3.65 µM | GI50 (MALME-3M melanoma): 1.53 µM | TGI (MALME-3M melanoma): 2.93 µM | GI50 (MCF7 breast): 0.57 µM | TGI (MCF7 breast): 2.39 µM | GI50 (MDA-MB-231 breast): 0.547 µM | TGI (MDA-MB-231 breast): 1.86 µM | GI50 (MDA-MB-435): 1.43 µM | TGI (MDA-MB-435): 2.76 µM | GI50 (MOLT-4 leukemia): 0.827 µM | TGI (MOLT-4 leukemia): 3.12 µM | GI50 (NCI-H226 lung): 1.83 µM | TGI (NCI-H226 lung): 3.74 µM | GI50 (NCI-H23 lung): 1.73 µM | TGI (NCI-H23 lung): 3.48 µM | GI50 (NCI-H460 lung): 1.15 µM | TGI (NCI-H460 lung): 2.84 µM | GI50 (NCI-H522 lung): 1.48 µM | TGI (NCI-H522 lung): 3.48 µM | GI50 (NCI/ADR-RES ovarian): > 100 µM | TGI (NCI/ADR-RES ovarian): > 100 µM | GI50 (OVCAR-3 ovarian): 0.96 µM | TGI (OVCAR-3 ovarian): 2.2 µM | GI50 (OVCAR-4 ovarian): 2.02 µM | TGI (OVCAR-4 ovarian): 3.54 µM | GI50 (OVCAR-5 ovarian): 1.97 µM | TGI (OVCAR-5 ovarian): 4.82 µM | GI50 (PC-3 prostate): 1.48 µM | TGI (PC-3 prostate): 3.06 µM | GI50 (RPMI-8226 leukemia): 1.12 µM | TGI (RPMI-8226 leukemia): 3.76 µM | GI50 (RXF 393 renal): 1.8 µM | TGI (RXF 393 renal): 3.48 µM | GI50 (SF-268 CNS): 1.66 µM | TGI (SF-268 CNS): 3.34 µM | GI50 (SF-295 CNS): 1.81 µM | TGI (SF-295 CNS): 3.35 µM | GI50 (SF-539 CNS): 1.69 µM | TGI (SF-539 CNS): 3.1 µM | GI50 (SK-MEL-2 melanoma): 1.76 µM | TGI (SK-MEL-2 melanoma): 3.34 µM | GI50 (SK-MEL-28 melanoma): 1.81 µM | TGI (SK-MEL-28 melanoma): 3.22 µM | GI50 (SK-MEL-5 melanoma): 1.72 µM | TGI (SK-MEL-5 melanoma): 3.2 µM | GI50 (SK-OV-3 ovarian): 1.9 µM | TGI (SK-OV-3 ovarian): 3.93 µM | GI50 (SN12C renal): 1.61 µM | TGI (SN12C renal): 3.06 µM | GI50 (SNB-19 CNS): 1.63 µM | TGI (SNB-19 CNS): 3.04 µM | GI50 (SNB-75 CNS): 1.19 µM | TGI (SNB-75 CNS): 2.64 µM | GI50 (SR leukemia): 0.292 µM | TGI (SR leukemia): 1.05 µM | GI50 (SW-620 colon): 0.748 µM | TGI (SW-620 colon): 2.42 µM | GI50 (T-47D breast): 1.66 µM | TGI (T-47D breast): 3.75 µM | GI50 (TK-10 renal): 2.58 µM | TGI (TK-10 renal): 5.77 µM | GI50 (U251 CNS): 0.468 µM | TGI (U251 CNS): 1.88 µM | GI50 (UACC-257 melanoma): 1.91 µM | TGI (UACC-257 melanoma): 3.78 µM | GI50 (UACC-62 melanoma): 1.72 µM | TGI (UACC-62 melanoma): 3.18 µM | GI50 (UO-31 renal): 52.3 µM | TGI (UO-31 renal): > 100 µM
